Measurements as given in ChEMBL document CHEMBL1154516, “Highly efficacious factor Xa inhibitors containing alpha-substituted phenylcycloalkyl P4 moieties” (Bioorg Med Chem Lett, 2009).

Experiments:
in vivo [1] = conditions: dog, iv, 0.5 mg/kg
in vivo [2] = conditions: dog, iv, 0.5 mg/kg; remark: listed apart in the source
in vivo [3] = conditions: dog, po, 0.2 mg/kg
in vivo [4] = conditions: dog, po, 0.2 mg/kg; remark: listed apart in the source
physchem = conditions: octanol/water
in vitro [5] = conditions: human, liver microsomes
in vitro [6] = conditions: dog, liver microsomes
Canis familiaris = species: Canis familiaris; conditions: dog, in vivo, po, 0.2 mg/kg

SMILES	Vd (in vivo [1]) [L/kg]	clearance (in vivo [2]) [mL/min/kg]	half-life (in vivo [3]) [h]	bioavailability (in vivo [4]) [%]	logP (physchem)	half-life (in vitro [5]) [h]	half-life (in vitro [6]) [h]	t1/2 (Canis familiaris) [h]
COc1ccc(-n2nc(C#N)c3c2C(=O)N(c2ccc(C4(CN(C)C)CC4)cc2)CC3)cc1.O=C(O)C(F)(F)F	11.7	22.8	6.4	41	2.5	2.97	1.22	
COc1ccc(-n2nc(C(N)=O)c3c2C(=O)N(c2ccc(C4(N(C)CCO)CC4)cc2)CC3)cc1.O=C(O)C(F)(F)F	4.1	20	4.3	67		0.783	3	
COc1ccc(N2N=C(S(C)(=O)=O)C3CCN(c4ccc(C5(CN6CCCC6)CC5)cc4)C(=O)C32)cc1.O=C(O)C(F)(F)F (centres undefined)	7.7	55	2.3	100		0.617		
CNCC1(c2ccc(N3CCc4c(C(F)(F)F)nn(-c5ccc(OC)cc5)c4C3=O)cc2)CC1					3.2			
CN(C)Cc1nccn1-c1ccc(NC(=O)c2cc(C(F)(F)F)nn2-c2ccc3onc(N)c3c2)c(F)c1 [RAZAXABAN]								3.4
COc1ccc(-n2nc(S(C)(=O)=O)c3c2C(=O)N(c2ccc(C4(Cn5ccnc5C)CC4)cc2)CC3)cc1.O=C(O)C(F)(F)F	4	70		0.2		0.0833		
COc1ccc(-n2nc(C(F)(F)F)c3c2C(=O)N(c2ccc(C4(CN(C)C)CC4)cc2)CC3)cc1					3.4			

More lines, now with the values ahead:

Vd (in vivo [1]) [L/kg]	clearance (in vivo [2]) [mL/min/kg]	half-life (in vivo [3]) [h]	bioavailability (in vivo [4]) [%]	logP (physchem)	half-life (in vitro [5]) [h]	half-life (in vitro [6]) [h]	t1/2 (Canis familiaris) [h]	SMILES
				4				COc1ccc(-n2nc(C#N)c3c2C(=O)N(c2ccc(C4(CN5CCOCC5)CC4)cc2)CC3)cc1
0.65	8.17	1.9	27		1.62	1.65		COc1ccc(-n2nc(C(N)=O)c3c2C(=O)N(c2ccc(C4(CC(N)=O)CC4)cc2)CC3)cc1.O=C(O)C(F)(F)F
7.1	28.3	4	6		> 3.33	1		COc1ccc(-n2nc(C(N)=O)c3c2C(=O)N(c2ccc(C4(CN5CCCC5)CC4)cc2)CC3)cc1.O=C(O)C(F)(F)F
				3.4				COc1ccc(-n2nc(C(F)(F)F)c3c2C(=O)N(c2ccc(C4(CN5CCCC5)CC4)cc2)CC3)cc1
				3.3				COc1ccc(-n2nc(C(N)=O)c3c2C(=O)N(c2ccc(C4(CN5CCOCC5)CC4)cc2)CC3)cc1
4.4	30	1.6	15		2.43	0.6		CNC1(c2ccc(N3CCc4c(C(N)=O)nn(-c5ccc(OC)cc5)c4C3=O)cc2)CC1.O=C(O)C(F)(F)F
0.2	0.333							COc1ccc(-n2nc(C(N)=O)c3c2C(=O)N(c2ccc(N4CCCCC4=O)cc2)CC3)cc1 [APIXABAN]
1.9	13.3	4	61		0.417			COc1ccc(-n2nc(S(C)(=O)=O)c3c2C(=O)N(c2ccc(C4(CN5CCOCC5)CC4)cc2)CC3)cc1.O=C(O)C(F)(F)F
0.2	4.17	0.99	3.1		0.167	0.183		COc1ccc(-n2nc(C(N)=O)c3c2C(=O)N(c2ccc(C4(CN5CCCC5=O)CC4)cc2)CC3)cc1.O=C(O)C(F)(F)F
